Data published in patent US9625458B2, “Biosensor” (priority 2002, dated 2017).

Legend:
[1] = molecular target: T1, E. coli ribose binding protein (RBP), fluorophore-conjugated cysteine mutants (Escherichia coli, UniProt P02925); test: Ligand affinity of ribose BP fluorescent conjugates (Kd range); conditions: range over conjugates, n=14
T1 construct: single-Cys mutants (e.g. T135C, E192C) with fluorophores
From the text: (§1) Molecular Cloning. […] Amplified products were cloned into one of the protein expression vectors pAED4 (Doering, “Functional and structural studies of a small f-actin binding domain” in Ph.D. thesis, Massachusetts Institute of Technology, 1992); pKK223-3 (Brosius & Holy, Proc. Natl. Acad. Sci. USA 81:6929-6933, 1984); or pET vectors (Studier et al., Meth. Enzymol. 185:60-89, 1990) (Novagen). N-terminal oligonucleotide primers were designed to clone only the processed periplasmic form, deleting the signal sequence. The C-terminal primer was designed to append the sequence Gly-Ser-Gly-(His)n or Gly-Ser-(His)n, where n=5, 6, or 10. Two tandem stop codons (TAATGA) follow the last His codon. […] Additionally the sequence of Fe(III) BP was mutated by substitution of Glu57 with Asp to raise the Kd to a concentration range conveniently measured using Fe(III) citrate.
(§2) Fluorophore conjugation to cysteine-substituted bPBPs. […] The efficiency of reporter group attachment was assessed by determination of unreacted thiol with Ellman's reagent (Ellman, Arch. Biochem. Biophys. 74:443-450, 1958) or by measuring the ratio of fluorophore to protein from absorbance spectra of the purified conjugate.
(§3) Fluorimetry. […] Fluorescence emission spectra were acquired with excitation and emission slit widths of 4 and 8 nm, respectively. […]

[2] = molecular target: T2, E. coli ribose binding protein variant A234C, fluorophore conjugate (Escherichia coli, UniProt P02925, A259C); test: Fluorimetric titration of fluorophore conjugates; conditions: ligand ribose
T2 construct: Gly-Ser-Gly-(His)n or Gly-Ser-(His)n, n=5, 6 or 10 (C); initiator methionine (N); made in house; host or cells: E. coli strain BL21-DE3
T2 sequence (P02925 26-296 A259C): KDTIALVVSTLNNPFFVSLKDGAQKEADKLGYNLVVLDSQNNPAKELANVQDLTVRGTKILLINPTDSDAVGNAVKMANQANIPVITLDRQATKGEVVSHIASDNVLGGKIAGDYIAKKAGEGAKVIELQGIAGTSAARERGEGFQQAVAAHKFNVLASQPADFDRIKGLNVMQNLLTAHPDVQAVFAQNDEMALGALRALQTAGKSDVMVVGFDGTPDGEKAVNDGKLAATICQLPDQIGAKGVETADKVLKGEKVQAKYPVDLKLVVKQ
From the text: (§4) Molecular Cloning. […] Amplified products were cloned into one of the protein expression vectors pAED4 (Doering, “Functional and structural studies of a small f-actin binding domain” in Ph.D. thesis, Massachusetts Institute of Technology, 1992); pKK223-3 (Brosius & Holy, Proc. Natl. Acad. Sci. USA 81:6929-6933, 1984); or pET vectors (Studier et al., Meth. Enzymol. 185:60-89, 1990) (Novagen). N-terminal oligonucleotide primers were designed to clone only the processed periplasmic form, deleting the signal sequence. The C-terminal primer was designed to append the sequence Gly-Ser-Gly-(His)n or Gly-Ser-(His)n, where n=5, 6, or 10. Two tandem stop codons (TAATGA) follow the last His codon. […] Single amino acid substitutions were generated by overlapping PCR mutagenesis (Ho et al., Gene 77:51-59, 1989). All clones and mutations were confirmed by nucleotide sequencing. In the case of arabinose BP, the single cysteine in the wild type sequence was replaced by alanine to eliminate the possibility of reporter group conjugation to this thiol (Miller et al., J. Biol. Chem. 254:7521-7528, 1979). Additionally the sequence of Fe(III) BP was mutated by substitution of Glu57 with Asp to raise the Kd to a concentration range conveniently measured using Fe(III) citrate.
(§5) Fluorophore conjugation to cysteine-substituted bPBPs. Thiol-reactive fluorophores obtained from Molecular Probes (Eugene, Oreg.) were 5-iodoacetamidofluorescein (fluorescein); N-(1-pyrene) iodoacetamide (pyrene); N,N′-dimethyl-N-(iodoacetyl)-N′-(7-nitrobenz-2-oxa-1,3-diazol-4-yl)ethylenediamide (NBD); N-((2-(iodoacetoxy)ethyl)-N-methyl)amino-7-nitrobenz-2-oxa-1,3-diazole (NBDE); and 6-acryloyl-2-dimethylaminonaphthalene (acrylodan). The styryl and naphthyl dyes JPW4039, JPW4042, and JPW4045 (FIG. 3) were synthesized at the University of Connecticut. All fluorophore conjugation steps were typically carried out at room temperature. To protein at a concentration of 100 μM was added tris-(2-carboxyethyl)phosphine HCl to a five-fold molar excess to reduce intermolecular disulfide bonds. A thiol-reactive fluorophore (20 to 25 mM in acetonitrile or dimethyl sulfoxide) was added in small aliquots to a five-fold molar excess over protein. Conjugation proceeded in the dark at room temperature for 4 hours, or overnight at 4° C. Separation of protein from unreacted fluorophore was achieved by exhaustive dialysis or by size-exclusion chromatography. The efficiency of reporter group attachment was assessed by determination of unreacted thiol with Ellman's reagent (Ellman, Arch. Biochem. Biophys. 74:443-450, 1958) or by measuring the ratio of fluorophore to protein from absorbance spectra of the purified conjugate.
(§6) Fluorimetry. All measurements were conducted with an SLM Aminco-Bowman series 2 fluorimeter, with sample stirring at 25° C. Fluorescence emission spectra were acquired with excitation and emission slit widths of 4 and 8 nm, respectively. Photomultiplier tube potential was maintained between 400 and 800 volts. Protein concentrations were in the range of 50 to 1000 nM. Fluorophore-specific excitation was at the following approximate wavelengths: tryptophan, 290 nm; acrylodan, 390 nm; fluorescein, 485 nm; pyrene, 340 nm; NBD and NBDE, 490 nm; JPW4039, 485 nm; JPW4042, 470 nm; JPW4045, 470 nm.
(§7) Corrections were made for dilution of the protein and for background signal from buffer. Binding curves were fit to binding isotherms using equation 3 or 4, as appropriate.
(§8) Analyte affinity measurements. […] The emission wavelength monitored was that of maximum difference in intensity between the ligand-free and bound states. For each conjugate, fluorescence intensiometric observations were fit to a hyperbolic binding isotherm for a two-state model (Marvin et al., Proc. Natl. Acad. Sci. USA 94:4366-4371, 1997): […]

[3] = molecular target: T3, E. coli ribose binding protein variant L236C, fluorophore conjugate (Escherichia coli, UniProt P02925, L261C); test: Fluorimetric titration of fluorophore conjugates; conditions: ligand ribose
T3 construct: Gly-Ser-Gly-(His)n or Gly-Ser-(His)n, n=5, 6 or 10 (C); initiator methionine (N); made in house; host or cells: E. coli strain BL21-DE3
T3 sequence (P02925 26-296 L261C): as the sequence (P02925 26-296 A259C) above, with C234A, L236C counted along it
From the text: as §4, §5, §6, §7, §8

[4] = molecular target: T4, E. coli ribose binding protein variant E192C, fluorophore conjugate (Escherichia coli, UniProt P02925, E217C); test: Fluorimetric titration of fluorophore conjugates
T4 construct: Gly-Ser-Gly-(His)n or Gly-Ser-(His)n, n=5, 6 or 10 (C); initiator methionine (N); made in house; host or cells: E. coli strain BL21-DE3
T4 sequence (P02925 26-296 E217C): as the sequence (P02925 26-296 A259C) above, with E192C, C234A counted along it
From the text: as §4, §5, §6, §7, §8

[5] = molecular target: T5, E. coli ribose binding protein variant L265C, fluorophore conjugate (Escherichia coli, UniProt P02925, L290C); test: Fluorimetric titration of fluorophore conjugates
T5 construct: Gly-Ser-Gly-(His)n or Gly-Ser-(His)n, n=5, 6 or 10 (C); initiator methionine (N); made in house; host or cells: E. coli strain BL21-DE3
T5 sequence (P02925 26-296 L290C): as the sequence (P02925 26-296 A259C) above, with C234A, L265C counted along it
From the text: as §4, §5, §6, §7, §8

[6] = molecular target: T6, E. coli sulfate binding protein variant W290C, fluorophore conjugate (Escherichia coli, UniProt P0AG78, W309C); test: Fluorimetric titration of fluorophore conjugates; conditions: JPW4042 conjugate, ligand sulfate
T6 construct: Gly-Ser-Gly-(His)n or Gly-Ser-(His)n, n=5, 6 or 10 (C); initiator methionine (N); made in house; host or cells: E. coli strain BL21-DE3
T6 sequence (P0AG78 20-329 W309C): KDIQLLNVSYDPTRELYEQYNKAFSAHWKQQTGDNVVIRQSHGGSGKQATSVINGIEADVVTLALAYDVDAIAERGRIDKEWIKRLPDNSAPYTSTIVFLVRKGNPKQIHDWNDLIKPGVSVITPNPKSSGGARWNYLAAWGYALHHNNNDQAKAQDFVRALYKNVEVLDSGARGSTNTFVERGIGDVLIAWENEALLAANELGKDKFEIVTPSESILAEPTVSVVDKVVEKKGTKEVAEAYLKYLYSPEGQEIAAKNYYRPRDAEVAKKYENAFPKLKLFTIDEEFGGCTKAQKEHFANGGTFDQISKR
From the text: as §4, §5
(§9) Sulfate BP buffer (20 mM Tris-HCl, pH 8.0) was passed through the chloride form of Dowex 1X2-100 strongly basic anion-exchange resin. Sulfate BP solutions were treated by dialysis against treated buffer; Dowex resin held in a separate dialysis tube was also included.
as §6, §7
(§10) Analyte affinity measurements. […] The emission wavelength monitored was that of maximum difference in intensity between the ligand-free and bound states.

[7] = molecular target: T7, E. coli sulfate binding protein variant Q294C, fluorophore conjugate (Escherichia coli, UniProt P0AG78, Q313C); test: Fluorimetric titration of fluorophore conjugates; conditions: JPW4042 conjugate, ligand sulfate
T7 construct: Gly-Ser-Gly-(His)n or Gly-Ser-(His)n, n=5, 6 or 10 (C); initiator methionine (N); made in house; host or cells: E. coli strain BL21-DE3
T7 sequence (P0AG78 20-329 Q313C): as the sequence (P0AG78 20-329 W309C) above, with C290W, Q294C counted along it
From the text: as §4, §5, §9, §6, §7, §10

[8] = molecular target: T8, E. coli sulfate binding protein variant L65C, fluorophore conjugate (Escherichia coli, UniProt P0AG78, L84C); test: Fluorimetric titration of fluorophore conjugates; conditions: Fluorescein conjugate, ligand sulfate
T8 construct: Gly-Ser-Gly-(His)n or Gly-Ser-(His)n, n=5, 6 or 10 (C); initiator methionine (N); made in house; host or cells: E. coli strain BL21-DE3
T8 sequence (P0AG78 20-329 L84C): as the sequence (P0AG78 20-329 W309C) above, with L65C, C290W counted along it
From the text: as §4, §5, §9, §6, §7, §10

[9] = molecular target: T9, E. coli sulfate binding protein variant R134C, fluorophore conjugate (Escherichia coli, UniProt P0AG78, R153C); test: Fluorimetric titration of fluorophore conjugates
T9 construct: Gly-Ser-Gly-(His)n or Gly-Ser-(His)n, n=5, 6 or 10 (C); initiator methionine (N); made in house; host or cells: E. coli strain BL21-DE3
T9 sequence (P0AG78 20-329 R153C): as the sequence (P0AG78 20-329 W309C) above, with R134C, C290W counted along it
From the text: as §4, §5, §9, §6, §7, §10

[10] = molecular target: T10, E. coli sulfate binding protein (SBP), fluorophore-conjugated cysteine mutants (Escherichia coli, UniProt P0AG78); test: Ligand affinity of sulfate BP fluorescent conjugates (Kd range); conditions: range over conjugates, n=8
T10 construct: several single-Cys mutants with fluorophores
T10 sequence (P0AG78 20-329, change not shown): as the sequence (P0AG78 20-329 W309C) above, with C290W counted along it
From the text: as §1
as §2, with “conjugate. […]” for “conjugate.”
as §3

T1 sequence (P02925 26-296, stated change not applied): as the sequence (P02925 26-296 A259C) above, with C234A counted along it

Structure (SMILES): OC1OC[C@@H](O)[C@@H](O)[C@H]1O (some centres unmarked) [ribose]
- range of Kd [1]: 100 to 2.09e+06 nM
- Kd ([2]; JPW4039 conjugate): 1840 nM
- Kd ([2]; JPW4045 conjugate): 3760 nM
- Kd ([2]; NBD conjugate): 735 nM
- Kd ([3]; JPW4042 conjugate): 620 nM
- Kd ([3]; JPW4045 conjugate): 1530 nM
- Kd ([3]; NBD conjugate): 100 nM
- Kd ([4]; Kd, Fluorescein conjugate, E192C, ligand ribose): 11400 nM
- Kd ([4]; Kd, JPW4039 conjugate, E192C, ligand ribose): 2570 nM
- Kd ([4]; Kd, JPW4042 conjugate, E192C, ligand ribose): 5030 nM
- Kd ([4]; Kd, JPW4045 conjugate, E192C, ligand ribose): 15000 nM
- Kd ([4]; Kd, NBD conjugate, E192C, ligand ribose): 2600 nM
- Kd ([4]; affinity for ribose (Kd), E192C-JPW4039 conjugate): 2600 nM
- Kd ([4]; affinity for ribose (Kd), E192C-JPW4045 conjugate): 15000 nM
- Kd ([4]; affinity for ribose (Kd), E192C-NBD conjugate): 2600 nM
- Kd [5]: 260 nM

Structure (SMILES): O=S(=O)(O)O [sulfate]
- Kd [6]: 336 nM
- Kd [7]: 830 nM
- Kd [8]: 1090 nM
- Kd ([9]; Acrylodan conjugate, R134C, ligand sulfate): 4170 nM
- Kd ([9]; Fluorescein conjugate, R134C, ligand sulfate): 323 nM
- Kd ([9]; JPW4039 conjugate, R134C, ligand sulfate): 7500 nM
- Kd ([9]; JPW4042 conjugate, R134C, ligand sulfate): 29100 nM
- Kd ([9]; NBD conjugate, R134C, ligand sulfate): 22400 nM
- Kd ([9]; R134C-acrylodan): ~4000 nM
- Kd [10]: 320 to 29000 nM
